{"source": "ChEMBL document CHEMBL1201862", "about": "“PubChem BioAssay data set” (2004)", "assay_in_all_cases": "inhibition of tumour cell growth, NCI panel, 48 h", "key": {"[1]": {"tested_on": "CCRF-CEM"}, "[2]": {"tested_on": "LOX IMVI"}, "[3]": {"tested_on": "OVCAR-5"}, "[4]": {"tested_on": "UACC-62"}, "[5]": {"tested_on": "NCI-H23"}, "[6]": {"tested_on": "A498"}, "[7]": {"tested_on": "NCI-H522"}, "[8]": {"tested_on": "OVCAR-4"}, "[9]": {"tested_on": "NCI-H460"}, "[10]": {"tested_on": "HCT-116"}, "[11]": {"tested_on": "HOP-92"}, "[12]": {"tested_on": "MOLT-4"}, "[13]": {"tested_on": "SNB-19"}, "[14]": {"tested_on": "DMS-114"}, "[15]": {"tested_on": "SR"}, "[16]": {"tested_on": "HCC 2998"}, "[17]": {"tested_on": "A549"}, "[18]": {"tested_on": "OVCAR-8"}, "[19]": {"tested_on": "MCF7"}, "[20]": {"tested_on": "Hs-578T"}}, "note": "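Grown in 96-well plates, cells were treated for 48 hours with each compound at five concentrations. Insufficient inhibition: endpoint recorded as highest concentration tested. The concentration for 50% growth inhibition is given as GI50.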 The source made the active and inactive calls. Cut-off read from the data, not from the text of the source: active = GI50 up to about 1.1 µM and inactive = higher."}
{"smiles": "C=C1CC2(OC1=O)c1ccccc1CCc1ccccc12", "values": [{"measurement": "GI50", "setting": "[1]", "value": "0.627 µM (active)"}, {"measurement": "GI50", "setting": "[2]", "value": "1.46 µM (inactive)"}, {"measurement": "GI50", "setting": "[3]", "value": "14.5 µM (inactive)"}, {"measurement": "GI50", "setting": "[4]", "value": "6.4 µM (inactive)"}, {"measurement": "GI50", "setting": "[5]", "value": "9.95 µM (inactive)"}, {"measurement": "GI50", "setting": "[6]", "value": "25.8 µM (inactive)"}, {"measurement": "GI50", "setting": "[7]", "value": "1.71 µM (inactive)"}, {"measurement": "GI50", "setting": "[8]", "value": "1.93 µM (inactive)"}, {"measurement": "GI50", "setting": "[9]", "value": "12.5 µM (inactive)"}, {"measurement": "GI50", "setting": "[10]", "value": "1.44 µM (inactive)"}, {"measurement": "GI50", "setting": "[11]", "value": "1.72 µM (inactive)"}, {"measurement": "GI50", "setting": "[12]", "value": "2.43 µM (inactive)"}, {"measurement": "GI50", "setting": "[13]", "value": "7.62 µM (inactive)"}, {"measurement": "GI50", "setting": "[14]", "value": "1.85 µM (inactive)"}, {"measurement": "GI50", "setting": "[15]", "value": "0.497 µM (active)"}, {"measurement": "GI50", "setting": "[16]", "value": "2.54 µM (inactive)"}, {"measurement": "GI50", "setting": "[17]", "value": "8.26 µM (inactive)"}, {"measurement": "GI50", "setting": "[18]", "value": "4.48 µM (inactive)"}, {"measurement": "GI50", "setting": "[19]", "value": "4.59 µM (inactive)"}, {"measurement": "GI50", "setting": "[20]", "value": "1.94 µM (inactive)"}]}
{"smiles": "CS(=O)(=O)Nc1ccc(Nc2c3ccccc3nc3ccccc23)cc1", "values": [{"measurement": "GI50", "setting": "[1]", "value": "0.459 µM (active)"}, {"measurement": "GI50", "setting": "[2]", "value": "1.26 µM (inactive)"}, {"measurement": "GI50", "setting": "[3]", "value": "4.39 µM (inactive)"}, {"measurement": "GI50", "setting": "[4]", "value": "1.34 µM (inactive)"}, {"measurement": "GI50", "setting": "[5]", "value": "4.06 µM (inactive)"}, {"measurement": "GI50", "setting": "[6]", "value": "3.21 µM (inactive)"}, {"measurement": "GI50", "setting": "[7]", "value": "2.06 µM (inactive)"}, {"measurement": "GI50", "setting": "[8]", "value": "4.17 µM (inactive)"}, {"measurement": "GI50", "setting": "[9]", "value": "0.112 µM (active)"}, {"measurement": "GI50", "setting": "[10]", "value": "1.83 µM (inactive)"}, {"measurement": "GI50", "setting": "[11]", "value": "4.78 µM (inactive)"}, {"measurement": "GI50", "setting": "[12]", "value": "0.0873 µM (active)"}, {"measurement": "GI50", "setting": "[13]", "value": "2.03 µM (inactive)"}, {"measurement": "GI50", "setting": "[14]", "value": "1.46 µM (inactive)"}, {"measurement": "GI50", "setting": "[15]", "value": "0.0789 µM (active)"}, {"measurement": "GI50", "setting": "[16]", "value": "4.25 µM (inactive)"}, {"measurement": "GI50", "setting": "[17]", "value": "0.325 µM (active)"}, {"measurement": "GI50", "setting": "[18]", "value": "2.77 µM (inactive)"}, {"measurement": "GI50", "setting": "[19]", "value": "1.07 µM (active)"}, {"measurement": "GI50", "setting": "[20]", "value": "6.43 µM (inactive)"}]}
